Where two headings read alike, the source gives them in different places.
Legend:
Test in all cases: Kinase binding screen
Conditions in all cases: read-out: Percent Control at 100 nM Compound Concentration
[1] = biological target: LRRK2 (Homo sapiens (Human), UniProt Q5S007)
[2] = biological target: EPHA2 (Homo sapiens (Human), UniProt P29317)
[3] = biological target: DLK (Homo sapiens (Human), UniProt Q12852)
[4] = biological target: CIT (Homo sapiens (Human), UniProt O14578)
[5] = biological target: NEK1 (Homo sapiens (Human), UniProt Q96PY6)
[6] = biological target: DAPK2 (Homo sapiens (Human), UniProt Q9UIK4)
[7] = biological target: DCAMKL1 (Homo sapiens (Human), UniProt O15075)
[8] = biological target: ALK(L1196M) (Homo sapiens (Human), UniProt Q9UM73, L1196M)
[9] = biological target: ULK3 (Homo sapiens (Human), UniProt Q6PHR2)
[10] = biological target: PRKG2 (Homo sapiens (Human), UniProt Q13237)
[11] = biological target: SgK110 (Homo sapiens (Human), UniProt P0C264)
[12] = biological target: TAOK1 (Homo sapiens (Human), UniProt Q7L7X3)
[13] = biological target: NLK (Homo sapiens (Human), UniProt Q9UBE8)
[14] = biological target: MEK3 (Homo sapiens (Human), UniProt P46734)
[15] = biological target: PAK2 (Homo sapiens (Human), UniProt Q13177)
[16] = biological target: ACVR1B (Homo sapiens (Human), UniProt P36896)
[17] = biological target: TAK1 (Homo sapiens (Human), UniProt O43318)
[18] = biological target: DDR2 (Homo sapiens (Human), UniProt Q16832)
[19] = biological target: EPHB1 (Homo sapiens (Human), UniProt P54762)
[20] = biological target: STK36 (Homo sapiens (Human), UniProt Q9NRP7)
[21] = biological target: AKT1 (Homo sapiens (Human), UniProt P31749)
[22] = biological target: PHKG1 (Homo sapiens (Human), UniProt Q16816)
[23] = biological target: ABL1(F317L)-phosphorylated (Homo sapiens (Human), UniProt P00519, F317L)
[24] = biological target: MEK2 (Homo sapiens (Human), UniProt P36507)
[25] = biological target: PIK3CA (Homo sapiens (Human), UniProt P42336)
[26] = biological target: PCTK1 (Homo sapiens (Human), UniProt Q00536)
[27] = biological target: RET(M918T) (Homo sapiens (Human), UniProt P07949, M918T)
[28] = biological target: DCAMKL3 (Homo sapiens (Human), UniProt Q9C098)
[29] = biological target: ABL1(Q252H)-nonphosphorylated (Homo sapiens (Human), UniProt P00519, Q252H)

Chain of PCTK1 (Q00536 whole entry): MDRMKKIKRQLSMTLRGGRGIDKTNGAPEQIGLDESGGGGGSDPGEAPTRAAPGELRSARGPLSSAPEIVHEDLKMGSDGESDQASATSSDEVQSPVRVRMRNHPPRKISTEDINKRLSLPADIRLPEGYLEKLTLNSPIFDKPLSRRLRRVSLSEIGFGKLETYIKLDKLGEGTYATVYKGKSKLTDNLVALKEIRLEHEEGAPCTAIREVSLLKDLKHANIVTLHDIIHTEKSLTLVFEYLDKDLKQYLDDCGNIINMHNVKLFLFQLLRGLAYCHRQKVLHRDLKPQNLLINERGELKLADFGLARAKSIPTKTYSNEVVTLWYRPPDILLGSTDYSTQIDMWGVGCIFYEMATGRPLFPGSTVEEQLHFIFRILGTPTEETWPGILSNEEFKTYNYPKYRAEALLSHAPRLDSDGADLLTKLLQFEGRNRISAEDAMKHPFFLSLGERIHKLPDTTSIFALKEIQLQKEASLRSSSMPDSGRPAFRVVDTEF
Chain of DDR2 (Q16832 22-855): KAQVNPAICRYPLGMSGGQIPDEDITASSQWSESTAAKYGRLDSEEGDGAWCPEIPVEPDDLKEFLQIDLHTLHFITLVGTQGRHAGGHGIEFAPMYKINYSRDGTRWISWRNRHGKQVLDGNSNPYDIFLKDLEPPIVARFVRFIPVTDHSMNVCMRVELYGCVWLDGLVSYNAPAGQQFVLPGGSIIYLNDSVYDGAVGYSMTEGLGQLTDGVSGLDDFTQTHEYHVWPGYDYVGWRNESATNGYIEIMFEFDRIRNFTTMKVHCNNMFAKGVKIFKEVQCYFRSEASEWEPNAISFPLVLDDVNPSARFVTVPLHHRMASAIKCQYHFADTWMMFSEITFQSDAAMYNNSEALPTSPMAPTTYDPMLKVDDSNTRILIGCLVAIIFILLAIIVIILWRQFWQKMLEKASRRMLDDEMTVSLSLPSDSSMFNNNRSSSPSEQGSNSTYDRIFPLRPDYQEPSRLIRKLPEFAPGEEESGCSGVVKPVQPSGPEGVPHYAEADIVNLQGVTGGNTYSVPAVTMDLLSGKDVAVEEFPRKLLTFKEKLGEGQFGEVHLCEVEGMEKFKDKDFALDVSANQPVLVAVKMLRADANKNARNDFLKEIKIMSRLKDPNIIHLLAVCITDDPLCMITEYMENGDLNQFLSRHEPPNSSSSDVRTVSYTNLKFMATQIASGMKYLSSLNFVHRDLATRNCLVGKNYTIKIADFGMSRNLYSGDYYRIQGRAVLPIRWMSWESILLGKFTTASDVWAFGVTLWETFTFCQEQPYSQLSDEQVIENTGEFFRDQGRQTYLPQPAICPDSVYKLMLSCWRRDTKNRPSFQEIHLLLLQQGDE
Chain of DCAMKL3 (Q9C098 whole entry, looked up): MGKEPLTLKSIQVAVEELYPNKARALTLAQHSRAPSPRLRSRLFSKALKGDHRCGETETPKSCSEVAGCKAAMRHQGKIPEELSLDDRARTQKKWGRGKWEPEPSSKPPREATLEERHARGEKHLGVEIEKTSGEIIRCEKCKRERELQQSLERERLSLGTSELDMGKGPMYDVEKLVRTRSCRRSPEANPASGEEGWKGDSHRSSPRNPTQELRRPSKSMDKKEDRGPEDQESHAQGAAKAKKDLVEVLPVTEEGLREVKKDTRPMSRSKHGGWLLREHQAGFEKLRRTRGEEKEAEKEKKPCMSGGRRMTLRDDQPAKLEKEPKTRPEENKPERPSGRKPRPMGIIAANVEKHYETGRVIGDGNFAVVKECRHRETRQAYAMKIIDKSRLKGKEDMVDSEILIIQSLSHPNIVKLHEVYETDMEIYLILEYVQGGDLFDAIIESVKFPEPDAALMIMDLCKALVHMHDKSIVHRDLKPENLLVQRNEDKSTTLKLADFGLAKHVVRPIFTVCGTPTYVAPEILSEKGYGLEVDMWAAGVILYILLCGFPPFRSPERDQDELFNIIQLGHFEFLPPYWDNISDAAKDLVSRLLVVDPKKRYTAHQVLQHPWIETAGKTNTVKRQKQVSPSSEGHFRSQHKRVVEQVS
Chain of NEK1 (Q96PY6 whole entry): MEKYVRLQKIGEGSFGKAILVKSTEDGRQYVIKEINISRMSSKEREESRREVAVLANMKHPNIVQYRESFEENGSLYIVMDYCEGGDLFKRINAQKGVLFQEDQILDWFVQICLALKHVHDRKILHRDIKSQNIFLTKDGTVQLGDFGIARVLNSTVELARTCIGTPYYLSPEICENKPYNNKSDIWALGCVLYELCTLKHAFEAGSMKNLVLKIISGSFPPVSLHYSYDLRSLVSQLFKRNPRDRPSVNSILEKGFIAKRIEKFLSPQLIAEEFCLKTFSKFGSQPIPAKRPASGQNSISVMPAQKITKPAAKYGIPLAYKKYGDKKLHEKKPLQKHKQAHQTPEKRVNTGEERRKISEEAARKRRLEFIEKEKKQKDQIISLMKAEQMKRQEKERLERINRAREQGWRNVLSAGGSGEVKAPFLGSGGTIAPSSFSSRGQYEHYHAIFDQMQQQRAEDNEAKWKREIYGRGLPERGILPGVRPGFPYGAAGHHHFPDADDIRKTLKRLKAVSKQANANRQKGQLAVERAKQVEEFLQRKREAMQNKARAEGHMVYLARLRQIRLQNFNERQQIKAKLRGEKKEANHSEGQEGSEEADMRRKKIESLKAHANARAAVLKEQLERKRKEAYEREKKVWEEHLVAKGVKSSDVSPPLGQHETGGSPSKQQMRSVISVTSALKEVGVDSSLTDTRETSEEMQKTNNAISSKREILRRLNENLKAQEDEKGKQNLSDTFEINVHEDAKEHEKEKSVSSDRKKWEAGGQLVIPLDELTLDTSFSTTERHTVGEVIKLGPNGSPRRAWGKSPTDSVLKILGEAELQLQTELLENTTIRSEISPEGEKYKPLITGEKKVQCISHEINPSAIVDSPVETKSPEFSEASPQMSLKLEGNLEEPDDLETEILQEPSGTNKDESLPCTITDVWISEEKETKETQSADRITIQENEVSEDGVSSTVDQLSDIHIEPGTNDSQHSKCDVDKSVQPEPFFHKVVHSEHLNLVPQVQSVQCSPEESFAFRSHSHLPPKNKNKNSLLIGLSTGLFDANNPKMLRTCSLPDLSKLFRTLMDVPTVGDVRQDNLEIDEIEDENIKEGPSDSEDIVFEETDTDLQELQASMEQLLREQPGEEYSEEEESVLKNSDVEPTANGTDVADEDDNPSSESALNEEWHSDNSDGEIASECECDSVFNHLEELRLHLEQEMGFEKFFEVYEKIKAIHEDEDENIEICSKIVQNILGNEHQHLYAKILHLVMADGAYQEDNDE
Chain of ALK(L1196M) (Q9UM73 19-1620 L1196M): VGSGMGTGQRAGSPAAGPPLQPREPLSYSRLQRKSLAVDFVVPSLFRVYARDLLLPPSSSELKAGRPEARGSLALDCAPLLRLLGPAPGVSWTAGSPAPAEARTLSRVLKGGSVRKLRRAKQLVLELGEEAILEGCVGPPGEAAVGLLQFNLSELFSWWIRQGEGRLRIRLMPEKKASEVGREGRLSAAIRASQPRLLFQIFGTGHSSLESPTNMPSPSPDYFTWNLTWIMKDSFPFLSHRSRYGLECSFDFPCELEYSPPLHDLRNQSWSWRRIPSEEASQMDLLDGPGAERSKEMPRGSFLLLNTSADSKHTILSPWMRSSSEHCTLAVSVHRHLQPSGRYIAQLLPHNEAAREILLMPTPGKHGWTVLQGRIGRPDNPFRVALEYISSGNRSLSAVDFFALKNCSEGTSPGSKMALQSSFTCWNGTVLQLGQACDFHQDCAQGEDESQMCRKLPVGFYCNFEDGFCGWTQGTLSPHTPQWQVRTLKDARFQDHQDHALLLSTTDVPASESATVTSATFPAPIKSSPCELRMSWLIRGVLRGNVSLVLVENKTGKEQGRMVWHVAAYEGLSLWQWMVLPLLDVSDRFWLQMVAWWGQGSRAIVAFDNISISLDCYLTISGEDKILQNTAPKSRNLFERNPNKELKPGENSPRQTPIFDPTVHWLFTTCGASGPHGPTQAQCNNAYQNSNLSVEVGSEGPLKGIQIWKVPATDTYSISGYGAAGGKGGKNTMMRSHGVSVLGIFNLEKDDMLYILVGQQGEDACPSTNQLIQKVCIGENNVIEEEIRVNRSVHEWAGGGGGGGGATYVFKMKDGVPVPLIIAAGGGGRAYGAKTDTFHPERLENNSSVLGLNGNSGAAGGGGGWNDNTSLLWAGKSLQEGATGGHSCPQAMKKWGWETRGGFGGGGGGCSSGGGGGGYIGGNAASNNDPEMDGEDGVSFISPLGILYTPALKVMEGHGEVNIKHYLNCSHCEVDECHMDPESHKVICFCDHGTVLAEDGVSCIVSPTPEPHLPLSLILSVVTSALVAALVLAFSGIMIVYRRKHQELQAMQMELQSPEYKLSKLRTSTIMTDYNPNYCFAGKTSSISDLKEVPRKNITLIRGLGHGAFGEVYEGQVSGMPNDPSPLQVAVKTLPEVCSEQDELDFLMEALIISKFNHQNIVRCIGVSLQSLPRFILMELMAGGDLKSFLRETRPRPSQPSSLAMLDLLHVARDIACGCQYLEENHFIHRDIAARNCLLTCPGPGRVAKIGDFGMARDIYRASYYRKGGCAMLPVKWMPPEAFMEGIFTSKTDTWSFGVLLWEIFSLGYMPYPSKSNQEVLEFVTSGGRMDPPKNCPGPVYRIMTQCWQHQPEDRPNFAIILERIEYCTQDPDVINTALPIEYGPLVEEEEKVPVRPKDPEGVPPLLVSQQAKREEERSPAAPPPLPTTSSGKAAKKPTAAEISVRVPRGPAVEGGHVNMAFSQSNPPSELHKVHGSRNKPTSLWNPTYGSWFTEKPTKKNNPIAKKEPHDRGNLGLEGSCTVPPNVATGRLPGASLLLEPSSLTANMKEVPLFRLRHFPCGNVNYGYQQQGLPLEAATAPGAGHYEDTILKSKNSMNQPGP

## CN(C[C@@H](O)Cc1ccccc1)C(=O)c1cncc(C#Cc2cnn(C(F)F)c2)c1 [Example 2, (S)-5-((1-(difluoromethyl)-1H-pyrazol-4-yl)ethynyl)-N-(2-hydroxy-3-phenylpropyl)-N-methylnicotinamide]
[1]; LRRK2
  remaining activity at 0.1 µM: 100%
[2]; EPHA2
  remaining activity at 0.1 µM: 100%
[3]; DLK
  remaining activity at 0.1 µM: 100%
[4]; CIT
  remaining activity at 0.1 µM: 98%
[5]; NEK1
  remaining activity at 0.1 µM: 100%
[6]; DAPK2
  remaining activity at 0.1 µM: 100%
[7]; DCAMKL1
  remaining activity at 0.1 µM: 100%
[8]; ALK(L1196M)
  remaining activity at 0.1 µM: 100%
[9]; ULK3
  remaining activity at 0.1 µM: 97%
[10]; PRKG2
  remaining activity at 0.1 µM: 100%
[11]; SgK110
  remaining activity at 0.1 µM: 81%
[12]; TAOK1
  remaining activity at 0.1 µM: 100%
[13]; NLK
  remaining activity at 0.1 µM: 100%
[14]; MEK3
  remaining activity at 0.1 µM: 94%
[15]; PAK2
  remaining activity at 0.1 µM: 97%
[16]; ACVR1B
  remaining activity at 0.1 µM: 100%
[17]; TAK1
  remaining activity at 0.1 µM: 97%
[18]; DDR2
  remaining activity at 0.1 µM: 100%
[19]; EPHB1
  remaining activity at 0.1 µM: 100%
[20]; STK36
  remaining activity at 0.1 µM: 100%
[21]; AKT1
  remaining activity at 0.1 µM: 100%
[22]; PHKG1
  remaining activity at 0.1 µM: 100%
[23]; ABL1(F317L)-phosphorylated
  remaining activity at 0.1 µM: 82%
[24]; MEK2
  remaining activity at 0.1 µM: 99%
[25]; PIK3CA
  remaining activity at 0.1 µM: 100%
[26]; PCTK1
  remaining activity at 0.1 µM: 91%
[27]; RET(M918T)
  remaining activity at 0.1 µM: 100%
[28]; DCAMKL3
  remaining activity at 0.1 µM: 100%
[29]; ABL1(Q252H)-nonphosphorylated
  remaining activity at 0.1 µM: 92%

## CN(C[C@H](Cc1ccccc1)OP(=O)(O)O)C(=O)c1cncc(C#Cc2cnn(C(F)F)c2)c1 [Example 19, (S)-1-(5-((1-(difluoromethyl)-1H-pyrazol-4-yl)ethynyl)-N-methylnicotinamido)-3-phenylpropan-2-yl dihydrogen phosphate]
[1]
  remaining activity at 0.1 µM: 81%
[2]
  remaining activity at 0.1 µM: 100%
[3]
  remaining activity at 0.1 µM: 100%
[4]
  remaining activity at 0.1 µM: 95%
[5]
  remaining activity at 0.1 µM: 100%
[6]
  remaining activity at 0.1 µM: 90%
[7]
  remaining activity at 0.1 µM: 100%
[8]
  remaining activity at 0.1 µM: 100%
[9]
  remaining activity at 0.1 µM: 96%
[10]
  remaining activity at 0.1 µM: 97%
[11]
  remaining activity at 0.1 µM: 77%
[12]
  remaining activity at 0.1 µM: 100%
[13]
  remaining activity at 0.1 µM: 100%
[14]
  remaining activity at 0.1 µM: 79%
[15]
  remaining activity at 0.1 µM: 92%
[16]
  remaining activity at 0.1 µM: 100%
[17]
  remaining activity at 0.1 µM: 95%
[18]
  remaining activity at 0.1 µM: 100%
[19]
  remaining activity at 0.1 µM: 100%
[20]
  remaining activity at 0.1 µM: 100%
[21]
  remaining activity at 0.1 µM: 100%
[22]
  remaining activity at 0.1 µM: 100%
[23]
  remaining activity at 0.1 µM: 88%
[24]
  remaining activity at 0.1 µM: 98%
[25]
  remaining activity at 0.1 µM: 100%
[26]
  remaining activity at 0.1 µM: 84%
[27]
  remaining activity at 0.1 µM: 100%
[28]
  remaining activity at 0.1 µM: 100%
[29]
  remaining activity at 0.1 µM: 100%
